From publication PMC11303563 (Communications Medicine, 2024)
Values joined by “and” are separate entries in the source; they are usually repeats but may differ in a detail not shown here. Equal values may be shown once.

Legend:
full-length human THRα = biological target: T1, full-length human THRα (Homo sapiens, UniProt P10827); assay: [125I]-T3-displacement assay, THRα; conditions: from IC50 values THRα vs THRβ
T1 sequence (P10827 1-410 isoform P10827-2): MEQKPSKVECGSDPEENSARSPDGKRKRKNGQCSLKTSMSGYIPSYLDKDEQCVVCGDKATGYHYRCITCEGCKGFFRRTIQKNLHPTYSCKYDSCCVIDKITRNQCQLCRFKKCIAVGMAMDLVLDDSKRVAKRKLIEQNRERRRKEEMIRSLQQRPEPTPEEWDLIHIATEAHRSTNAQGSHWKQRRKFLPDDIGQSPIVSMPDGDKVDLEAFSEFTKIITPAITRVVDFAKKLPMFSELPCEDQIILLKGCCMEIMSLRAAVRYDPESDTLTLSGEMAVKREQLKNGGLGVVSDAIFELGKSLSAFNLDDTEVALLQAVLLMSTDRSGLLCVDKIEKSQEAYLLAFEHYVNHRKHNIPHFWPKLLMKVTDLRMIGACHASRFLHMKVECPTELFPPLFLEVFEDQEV
Protocol: The coding sequences of full-length human THRα and THRβ were amplified by PCR.
The PCR products of THRα and β were cloned into EcoRI–KpnI and EcoRI–XbaI sites of pTNT (Promega), respectively. The resultant expression vectors, pTNT-THRα and pTNT-THRβ, were used for the synthesis of THRs by in vitro translation.
THRα and THRβ were synthesized by in vitro translation using TNT T7 Quick Coupled Transcription and Translation kit (Promega) according to the manufacturer’s protocol. After incubation at 30 °C for 90 min, the reaction mixtures were stored at −80 °C until use.
The reaction mixture was incubated overnight at 4 °C. A nitrocellulose membrane (Optitran, 0.45 μm in pore size, Whatman) pre-blocked by E-400 buffer was placed on a dot-blot apparatus (Minifold I, GE Healthcare), and the reaction mixtures were filtered through the membrane followed by three washes with 200 μL E-400 buffer. […] Radioactive signals were scanned using Typhoon FLA9000 (GE Healthcare) and quantified by Image Quant TL software (GE Healthcare). The IC50 values for each competitor were calculated by fitting the dose–response data to the log (inhibitor) vs. response (three parameters) model using GraphPad Prism (version 8.0; GraphPad Software).
Data are shown as mean ± SD (n = 3). Data were fitted to the log (inhibitor) vs. response (three parameters) model using GraphPad Prism (version 8.0; GraphPad Software).

[1] = test system: left ventricular cardiomyocytes; assay: Trans-nuclear width of left ventricular cardiomyocytes (hematoxylin-eosin staining); conditions: for Mean Diff. (Vehicle vs. treated group): Vehicle minus treated, Tukey's multiple comparisons test; for Mean (group mean, Fig. 7c; Tukey's multiple comparisons test details) / Mean Diff. (Vehicle vs. treated group): Fig. 7c
Protocol: Male 7-week-old C57BL/6J mice were obtained from a local supplier (Nihon SLC, Shizuoka, Japan). The mice were individually housed in cages (Innocage; ORIENTAL GIKEN) at 23 °C with a 12-h-light–dark cycle starting at 08:00 a.m. […] The injection was prepared by dissolving the compounds in 0.5 N NaOH at a concentration of 100 mM, which was then further diluted with saline to a concentration of either 0.05 or 0.5 mM. The volume of the solution injected was determined based on the body weight of the animal, measured once a week, with 0.05 and 0.5 mM solutions injected at 0.1 and 1 µmol/kg day, respectively. Each group consisted of 10 animals, except for the ND (n = 8) and HFD with saline (vehicle, n = 9) groups. In the ND-treated group, one animal died during the experimental period, and one animal was excluded from the analysis after finding tumor-like lesions in the liver. In the HFD-treated group, one animal was excluded from the analysis because its body weight was less than two standard deviations below the mean.
Heart tissues were fixed, dehydrated, and permeated with paraffin using an automatic fixation and encapsulation device (Sakura Finetech, Japan). Paraffin blocks were prepared using Tissue Tech TEC 6 (Sakura Finetech, Japan), and 5 µm-thick transverse transmural sections were prepared with a microtome (Leica). The sections were deparaffinized, rehydrated, and immersed in Meyer’s hematoxylin solution (FUJIFILM Wako Pure Chemical Industries), followed by eosin staining. Sections were dehydrated and mounted using Entellan New (Merck). Sections were observed under a microscope (BX43; Olympus) at × 400 magnification and digital images were captured using cellSens (Olympus). 100 cells were randomly selected from the left ventricle of an individual mouse, and their trans-nuclear widths were measured according to Oláh et al.[23] using Image J (National Institute of Health).
Heart sections were prepared and subjected to hematoxylin–eosin staining. 100 cells were randomly selected from the left ventricle of an individual mouse, their trans-nuclear widths were measured, and average values were calculated. Data are shown as the mean ± SEM (n = 8–10). Significant differences among groups are indicated by asterisks (*P < 0.05, **P < 0.01, ***P < 0.001, and ****P < 0.0001, one-way ANOVA with Tukey’s post-hoc test) (c).

[2] = test system: high-fat diet (HFD)-induced obesity model mice; assay: Oil Red O staining of the liver section; type: in vivo, C57BL/6J mice; conditions: i.p. 1 µmol/kg·day, 3 weeks
Protocol: 20 µm sections were prepared from frozen liver tissues using Cryostat (CM3050 S, Leica). Sections were affixed to silane-coated glass slides, dried at room temperature, and stored at −80 °C until use. Before staining, sections were fixed with 1% PFA/1 × PBS, pH 7.4 (Gibco) for 5 min, immersed in 1 × PBS for 5 min, distilled water for 5 min, and 60% 2-propanol solution for 1 min. Oil Red O staining solution was prepared by mixing 0.36 g of Oil Red O (Sigma) with 120 mL of 2-propanol and 80 mL of distilled water, allowing the solution to stand at room temperature for 1 h, then filtering the solution and leaving it overnight at 37 °C. Sections were immersed in the Oil Red O staining solution at 37 °C for 15 min, rinsed in 60% 2-propanol for 1 min, and in distilled water for 1 min. Sections were counterstained with Meyer’s hematoxylin. […] The area of red-stained fat droplets was quantified using Image J (National Institutes of Health), and the percentage of the stained area in the total image area was calculated. Nine different parts in three consecutive sections per mouse were analyzed.
Fig. 5 Oil Red O staining of the liver section of mice treated with TH analogs. […] After three weeks of injection, liver tissues were collected, frozen sections were prepared, and subjected to Oil Red O staining (a). Stained areas were quantified and normalized to the total image area. […]

[3] = Serum ALT (hepatotoxicity); conditions: for Serum ALT, group mean (Mean 2): n 10, Vehicle mean […]; for serum ALT level vs vehicle: HFD mice, 3 weeks
Protocol: Male 7-week-old C57BL/6J mice were obtained from a local supplier (Nihon SLC, Shizuoka, Japan). The mice were individually housed in cages (Innocage; ORIENTAL GIKEN) at 23 °C with a 12-h-light–dark cycle starting at 08:00 a.m. […] The injection was prepared by dissolving the compounds in 0.5 N NaOH at a concentration of 100 mM, which was then further diluted with saline to a concentration of either 0.05 or 0.5 mM. The volume of the solution injected was determined based on the body weight of the animal, measured once a week, with 0.05 and 0.5 mM solutions injected at 0.1 and 1 µmol/kg day, respectively. Each group consisted of 10 animals, except for the ND (n = 8) and HFD with saline (vehicle, n = 9) groups. […] In the HFD-treated group, one animal was excluded from the analysis because its body weight was less than two standard deviations below the mean.
The blood samples were left to stand for 1 h at room temperature, then centrifuged at 4 °C for 15 min at 800 × g, and the supernatant was collected. […] Serum ALT levels were measured using Alanine Aminotransferase (ALT or SGPT) Activity Colorimetric/Fluorometric Assay Kit (BioVision) according to the manufacturer’s protocol.
Data are shown as the mean ± SEM (n = 8–10).

| SMILES | affinity to THRα lower than that to THRβ (full-length human THRα) | cardiac width (Fig. 7c), individual values ([1]; 0.1 µmol dose group) | cardiac width (Fig. 7c), individual values ([1]; 1 µmol dose group) | Mean (group mean, Fig. 7c; Tukey's multiple comparisons test details) ([1]; HFD mice, dose 0.1 µmol) | Mean (group mean, Fig. 7c; Tukey's multiple comparisons test details) ([1]; HFD mice, dose 1 µmol) | transnuclear width of left ventricular cardiomyocytes vs vehicle ([1]; HFD mice, i.p. 1 µmol/kg day, 3 weeks) | Mean Diff. (Vehicle vs. treated group) ([1]; dose 0.1 µmol) | Mean Diff. (Vehicle vs. treated group) ([1]; dose 1 µmol) | Oil Red O-positive area in liver sections vs vehicle [2] | Serum ALT (Fig.7a), individual animal values ([3]; 0.1 µmol dose group) | Serum ALT, Tukey's multiple comparisons test, Mean Diff. (Vehicle vs. compound) ([3]; 0.1 µmol dose group vs. Vehicle) | Serum ALT, group mean (Mean 2) ([3]; 0.1 µmol dose group) | Serum ALT (Fig.7a), individual animal values ([3]; 1 µmol dose group) | Serum ALT, Tukey's multiple comparisons test, Mean Diff. (Vehicle vs. compound) ([3]; 1 µmol dose group vs. Vehicle) | Serum ALT, group mean (Mean 2) ([3]; 1 µmol dose group) | serum ALT level vs vehicle ([3]; i.p. 0.1 µmol/kg day) | serum ALT level vs vehicle ([3]; i.p. 1 µmol/kg day) |
| --- | --- | --- | --- | --- | --- | --- | --- | --- | --- | --- | --- | --- | --- | --- | --- | --- | --- |
| Cc1cc(OCC(=O)O)cc(C)c1Cc1ccc(O)c(C(C)C)c1 [GC-1] | approximately 20 fold |  |  |  |  |  |  |  |  |  |  |  |  |  |  |  |  |
| O=C(O)Cc1cc(C(F)(F)F)c(Cc2ccc(O)c3ccccc23)c(C(F)(F)F)c1 [ZTA-261] |  | 11.9852 and 12.1667 and 12.7952 and 11.4055 and 11.1301 and 11.9423 and 11.9907 and 12.4833 and 12.1061 and 13.5905 | 12.0147 and 12.4259 and 11.3636 and 12.41 and 12.0185 and 12.8514 and 11.9471 and 13.2394 and 12.2836 and 12.7848 | 12.16 | 12.33 | significantly increased | -1.182 | -1.356 | significantly reduced | 6.621 and 5.838 and 5.844 and 8.207 and 7.718 and 6.528 and 9.431 and 12.922 and 7.155 and 6.407 | 3.439 | 7.667 | 16.644 and 8.576 and 9.103 and 8.327 and 7.596 and 9.601 and 12.863 and 9.311 and 13.948 and 12.038 | 0.3054 | 10.8 | did not show a significant increase | did not show a significant increase |
